Data reported in PubChem BioAssay (NCI).
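How tested: cells in 96-well plates exposed to compound for 48 hours at five concentrations. GI50 marks 50% less growth. TGI marks complete inhibition of growth.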

Tests used:
Assay in all cases: NCI tumour cell line growth inhibition, 48 h
OVCAR-3 ovarian = test system: OVCAR-3 ovarian
K-562 leukemia = test system: K-562 leukemia
OVCAR-5 ovarian = test system: OVCAR-5 ovarian
LOX IMVI melanoma = test system: LOX IMVI melanoma
UO-31 renal = test system: UO-31 renal
NCI-H23 lung = test system: NCI-H23 lung
SNB-19 CNS = test system: SNB-19 CNS
HOP-62 NSCLC = test system: HOP-62 NSCLC
BT-549 breast = test system: BT-549 breast
A498 renal = test system: A498 renal
NCI-H522 lung = test system: NCI-H522 lung
SN12C renal = test system: SN12C renal
MDA-MB-468 breast = test system: MDA-MB-468 breast
CAKI-1 renal = test system: CAKI-1 renal
SK-OV-3 ovarian = test system: SK-OV-3 ovarian
SR leukemia = test system: SR leukemia
EKVX NSCLC = test system: EKVX NSCLC
HT29 colon = test system: HT29 colon
HOP-92 NSCLC = test system: HOP-92 NSCLC
NCI/ADR-RES ovarian = test system: NCI/ADR-RES ovarian
IGROV1 ovarian = test system: IGROV1 ovarian
NCI-H226 lung = test system: NCI-H226 lung
NCI-H460 lung = test system: NCI-H460 lung
TK-10 renal = test system: TK-10 renal
MDA-MB-435 = test system: MDA-MB-435
A549 NSCLC = test system: A549 NSCLC
HCT-116 colon = test system: HCT-116 colon
SF-539 CNS = test system: SF-539 CNS
MCF7 breast = test system: MCF7 breast
MALME-3M melanoma = test system: MALME-3M melanoma

In the case of `Cc1noc2c(Cc3ccccc3)nn(CC(=O)N/N=C/c3ccc(F)cc3)c(=O)c12`, the TGI (OVCAR-3 ovarian) is reported as greater than 100 µM, the GI50 (K-562 leukemia) is reported as 84.4 µM and the TGI (K-562 leukemia) is reported as greater than 100 µM. For the same molecule, the GI50 (OVCAR-5 ovarian) was greater than 100 µM, the TGI (OVCAR-5 ovarian) was greater than 100 µM and the GI50 (LOX IMVI melanoma) was 33 µM. For the same molecule, the TGI (LOX IMVI melanoma) was greater than 100 µM, the GI50 (UO-31 renal) was 18 µM and the TGI (UO-31 renal) was greater than 100 µM. The GI50 (NCI-H23 lung) was 17 µM, the TGI (NCI-H23 lung) was 41.7 µM and the GI50 (SNB-19 CNS) was 6.74 µM. For the same molecule, the TGI (SNB-19 CNS) was 24.2 µM, the GI50 (HOP-62 NSCLC) was 5.29 µM and the TGI (HOP-62 NSCLC) was 21 µM. It also gave a GI50 (BT-549 breast) of 14.5 µM, a TGI (BT-549 breast) of 37.8 µM and a GI50 (A498 renal) of 11 µM. It also gave a TGI (A498 renal) of 33.7 µM, a GI50 (NCI-H522 lung) of 19.1 µM and a TGI (NCI-H522 lung) of 73.6 µM. It also gave a GI50 (SN12C renal) greater than 100 µM, a TGI (SN12C renal) greater than 100 µM and a GI50 (MDA-MB-468 breast) of 16.1 µM. For the same molecule, the TGI (MDA-MB-468 breast) was 57.8 µM, the GI50 (CAKI-1 renal) was 6.13 µM and the TGI (CAKI-1 renal) was 32.1 µM. The GI50 (SK-OV-3 ovarian) was 4.4 µM, the TGI (SK-OV-3 ovarian) was 16 µM and the GI50 (SR leukemia) was greater than 100 µM. For the same molecule, the TGI (SR leukemia) was greater than 100 µM, the GI50 (EKVX NSCLC) was greater than 100 µM and the TGI (EKVX NSCLC) was greater than 100 µM. It also gave a GI50 (HT29 colon) greater than 100 µM, a TGI (HT29 colon) greater than 100 µM and a GI50 (HOP-92 NSCLC) of 9.56 µM. The TGI (HOP-92 NSCLC) was 27.8 µM, the GI50 (NCI/ADR-RES ovarian) was 21.3 µM and the TGI (NCI/ADR-RES ovarian) was greater than 100 µM. It also gave a GI50 (IGROV1 ovarian) of 22.5 µM, a TGI (IGROV1 ovarian) of 54.2 µM and a GI50 (NCI-H226 lung) of 4.12 µM. For the same molecule, the TGI (NCI-H226 lung) was 29.3 µM, the GI50 (NCI-H460 lung) was 9.78 µM and the TGI (NCI-H460 lung) was greater than 100 µM. For the same molecule, the GI50 (TK-10 renal) was 13.6 µM, the TGI (TK-10 renal) was 36.9 µM and the GI50 (MDA-MB-435) was greater than 100 µM. For the same molecule, the TGI (MDA-MB-435) was greater than 100 µM, the GI50 (A549 NSCLC) was 46.2 µM and the TGI (A549 NSCLC) was greater than 100 µM. It also gave a GI50 (HCT-116 colon) of 5.08 µM, a TGI (HCT-116 colon) of 77.3 µM and a GI50 (SF-539 CNS) of 16.7 µM. For the same molecule, the TGI (SF-539 CNS) was 37.3 µM, the GI50 (MCF7 breast) was 66.5 µM and the TGI (MCF7 breast) was greater than 100 µM. For the same molecule, the GI50 (MALME-3M melanoma) was 8.99 µM and the TGI (MALME-3M melanoma) was 38.5 µM.
